From patent US7297707B2, “Benzothiazolyl derivatives” (Hoffmann-La Roche Inc., priority 2003, dated 2007)

Legend:
[1] = doses of 5, 10 and 20 mg daily; cited from earlier work
[2] = biological target: T1, human cannabis CB1 receptor (Homo sapiens, UniProt P21554); experiment: Affinity for cannabinoid CB1 receptors, [3H]-CP-55,940 radioligand binding on HEK cell membranes; details: affinity for the CB1 receptor, [3H]-CP-55,940, HEK membranes
T1 construct: expressed in transfected cells; host or cells: human embryonic kidney (HEK) cells, Semliki Forest Virus system, membrane preparation
T1 sequence (P21554 whole entry): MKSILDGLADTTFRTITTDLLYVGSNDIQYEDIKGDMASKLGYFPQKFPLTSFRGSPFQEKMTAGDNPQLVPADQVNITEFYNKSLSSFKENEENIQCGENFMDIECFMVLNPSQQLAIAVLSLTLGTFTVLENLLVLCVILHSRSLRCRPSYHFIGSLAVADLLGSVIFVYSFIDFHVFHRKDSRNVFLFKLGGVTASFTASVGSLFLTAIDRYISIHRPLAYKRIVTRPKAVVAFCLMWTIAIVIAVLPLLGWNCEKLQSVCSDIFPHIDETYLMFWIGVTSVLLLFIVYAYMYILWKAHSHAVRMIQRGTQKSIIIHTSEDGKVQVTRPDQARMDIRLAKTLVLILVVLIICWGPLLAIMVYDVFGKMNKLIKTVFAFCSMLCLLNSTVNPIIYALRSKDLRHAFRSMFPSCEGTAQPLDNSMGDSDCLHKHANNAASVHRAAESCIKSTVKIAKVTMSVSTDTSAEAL
Procedure: The affinity of the compounds of the invention for cannabinoid CB1 receptors was determined using membrane preparations of human embryonic kidney (HEK) cells in which the human cannabis CB1 receptor is transiently transfected using the Semliki Forest Virus system in conjunction with [3H]-CP-55,940 as radioligand. After incubation of a freshly prepared cell membrane preparation with the [3H]-ligand, with or without addition of compounds of the invention, separation of bound and free ligand was performed by filtration over glassfiber filters. Radioactivity on the filter was measured by liquid scintillation counting.

## Cc1c(C(=O)NN2CCCCC2)nn(-c2ccc(Cl)cc2Cl)c1-c1ccc(Cl)cc1 [SR141716A]
[1]
  body weight compared to placebo: significantly reduced body weight

## COc1ccc(N(C(=O)c2ccc(Cl)cc2Cl)c2nc3ccc(NC(=O)Cc4ccccc4)cc3s2)cc1OC [Example 52, 2,4-Dichloro-N-(3,4-dimethoxy-phenyl)-N-(6-phenylacetylamino-benzothiazol-2-yl)-benzamide]
[2]
  IC50: 1.59 µM

## COc1ccc(N(C(=O)c2ccc(Cl)cc2Cl)c2nc3ccc(N)cc3s2)cc1OC [Example 45, N-(6-Amino-benzothiazol-2-yl)-2,4-dichloro-N-(3,4-dimethoxy-phenyl)-benzamide]
[2]
  IC50: 0.83 µM

## COc1ccc(N(C(=O)c2ccc([N+](=O)[O-])cc2Cl)c2nc3ccccc3s2)cc1 [Example 12, N-Benzothiazol-2-yl-2-chloro-N-(4-methoxy-phenyl)-4-nitro-benzamide]
[2]
  IC50: 2.48 µM

## COc1ccc(N(C(=O)c2ccccc2Cl)c2nc3ccc(NS(=O)(=O)N(C)C)cc3s2)cc1OC [Example 57, N-[6-(Dimethylamino-1-sulfonylamino)-benzothiazol-2-yl]-2-chloro-N-(3,4-dimethoxy-phenyl)-benzamide]
[2]
  IC50: 1.42 µM

## CCN(CC)c1ccc(N(C(=O)c2ccc([N+](=O)[O-])cc2Cl)c2nc3ccccc3s2)cc1 [Example 28, N-Benzothiazol-2-yl-2-chloro-N-(4-diethylamino-phenyl)-4-nitro-benzamide]
[2]
  IC50: 1.38 µM

## Cc1cc(Cl)ccc1N(C(=O)c1ccc(Cl)cc1Cl)c1nc2ccccc2s1 [Example 8, N-Benzothiazol-2-yl-2,4-dichloro-N-(4-chloro-2-methyl-phenyl)-benzamide]
[2]
  IC50: 0.73 µM

## COc1ccc(N(C(=O)c2ccc(C(F)(F)F)cc2F)c2nc3ccccc3s2)cc1 [Example 9, N-Benzothiazol-2-yl-2-fluoro-N-(4-methoxy-phenyl)-4-trifluoromethyl-benzamide]
[2]
  IC50: 1.96 µM
